pIC50: −log10 of the molar value.
Molecular target: Xanthine dehydrogenase/oxidase (Bos taurus, UniProt P80457)
Experiment: Inhibition Assay: Xanthine oxidase (from bovine milk, Sigma) was prepared with phosphate-buffered saline (PBS) at 0.02 units/mL, and then the solution was added to 96 well plates at 50 μL/well. In addition, test compounds diluted with PBS were added at 50 μL/well. Xanthine (manufactured by Wako pure chemical) at 200 μM prepared with PBS was added at 100 μL/well, and the reaction was conducted for 10 minutes at room temperature. Absorbance at 290 nm was measured by using a microplate reader SpectraMax Plus 384 (manufactured by Molecular device).

Chain of Xanthine dehydrogenase/oxidase (P80457 whole entry): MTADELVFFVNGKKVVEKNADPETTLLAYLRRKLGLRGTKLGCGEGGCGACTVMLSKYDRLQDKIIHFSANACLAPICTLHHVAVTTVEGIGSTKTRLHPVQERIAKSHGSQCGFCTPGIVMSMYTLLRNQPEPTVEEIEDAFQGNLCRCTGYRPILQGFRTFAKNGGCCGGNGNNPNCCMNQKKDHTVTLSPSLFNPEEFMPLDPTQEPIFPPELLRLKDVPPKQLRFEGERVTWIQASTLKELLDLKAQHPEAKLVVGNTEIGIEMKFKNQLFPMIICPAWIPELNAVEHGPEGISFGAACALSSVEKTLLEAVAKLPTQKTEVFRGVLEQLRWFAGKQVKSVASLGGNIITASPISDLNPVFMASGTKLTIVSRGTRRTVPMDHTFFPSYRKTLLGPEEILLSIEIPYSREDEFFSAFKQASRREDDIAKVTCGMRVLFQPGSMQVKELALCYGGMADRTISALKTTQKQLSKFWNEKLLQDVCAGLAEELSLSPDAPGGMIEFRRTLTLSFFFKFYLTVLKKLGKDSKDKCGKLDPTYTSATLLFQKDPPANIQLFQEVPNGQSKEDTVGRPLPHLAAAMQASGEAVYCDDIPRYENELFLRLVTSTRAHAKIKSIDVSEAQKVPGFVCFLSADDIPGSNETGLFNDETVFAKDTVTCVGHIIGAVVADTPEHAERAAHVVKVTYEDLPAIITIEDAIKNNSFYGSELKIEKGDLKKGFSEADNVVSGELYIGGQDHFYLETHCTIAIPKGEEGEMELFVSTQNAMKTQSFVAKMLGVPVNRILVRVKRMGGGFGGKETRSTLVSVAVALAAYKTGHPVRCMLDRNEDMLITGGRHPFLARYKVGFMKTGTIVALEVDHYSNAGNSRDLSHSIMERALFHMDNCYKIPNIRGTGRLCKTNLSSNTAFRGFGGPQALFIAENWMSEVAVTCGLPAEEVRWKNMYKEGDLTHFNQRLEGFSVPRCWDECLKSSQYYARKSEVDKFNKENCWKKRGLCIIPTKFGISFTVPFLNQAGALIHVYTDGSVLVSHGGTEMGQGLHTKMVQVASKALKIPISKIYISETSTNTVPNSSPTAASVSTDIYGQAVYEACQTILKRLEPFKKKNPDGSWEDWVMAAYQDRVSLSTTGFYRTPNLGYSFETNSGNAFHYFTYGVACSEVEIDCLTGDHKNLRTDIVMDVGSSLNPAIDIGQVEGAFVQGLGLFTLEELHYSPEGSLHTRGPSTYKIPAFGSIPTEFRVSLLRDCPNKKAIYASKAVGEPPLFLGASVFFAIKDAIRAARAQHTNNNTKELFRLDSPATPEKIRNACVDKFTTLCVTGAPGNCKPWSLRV

SMILES	pIC50
[C-]#[N+]c1cn(-c2ccc(C(=O)O)c(O)c2)c2cscc12	8.00
[C-]#[N+]c1cn(-c2ccc(C(=O)O)c(O)c2)c2sc(Br)cc12	7.85
[C-]#[N+]c1cn(-c2ccc(C(=O)O)c(O)c2)c2sccc12	7.89
